According to patent publication US6265572A, “Pyrrolidincarbonylamino cyclic disulfide anti-inflammatory agents” (Hoffmann-La Roche Inc., priority 2000, dated 2001):

Experiments:
VLA-4/VCAM-1 = molecular target: T1, VLA-4/VCAM-1 (Homo sapiens, UniProt P05556+P13612); assay: VLA-4/VCAM-1 Screening Assay (solid-phase, dual antibody ELISA); assay type: binding; details: Ramos cell-derived VLA-4, immobilized recombinant human VCAM-1
T1 construct: Ramos cell-derived VLA-4; endogenous in cells; host or cells: Ramos cells (VLA-4)
Source text: A means for determining the potency of these anti-inflammatory agents is by evaluating their ability to inhibit binding of the integrin VLA-4 to the cell adhesion molecule VCAM-1. For example, the potency of the compounds herein can be determined with respect to the concentration of the compound at 50% inhibition of VCAM/VLA4 binding (IC50) as measured by VLA-4/VCAM-1 binding assay.
In accordance with the present invention, any conventional method known in the art can be used to determine inhibition of VCAM-1/VLA-4 binding. For example, a solid-phase dual antibody ELISA or Ramos cell-based screening assay can be utilized to determine inhibition of VCAM-1/VLA-4 binding.
VLA-4/VCAM-1 Screening Assay
VLA-4 antagonist activity, defined as ability to compete for binding to immobilized VCAM-1, was quantitated using a solid-phase, dual antibody ELISA. VLA-4 (α4β1 integrin) bound to VCAM-1 is detected by a complex of anti-integrin β1 antibody: HRP-conjugated anti-mouse IgG: chromogenic substrate (K-Blue). Initially, this entailed coating 96 well plates (Nunc Maxisorp) with recombinant human VCAM-1 (0.4 μg in 100 μl PBS), sealing each plate and then allowing the plates to stand at 4° C. for 18 hours. […] On the day of assay, all plates are washed twice with VCAM Assay Buffer (200 μl/well of 50 mM Tris-HCl, 100 mM NaCl, 1 mM MnCl2, 0.05% T ween 20; pH 7.4). Test compounds are dissolved in 100% DMSO and then diluted 1:20 in VCAM Assay Buffer supplemented with 1 mg/mL BSA (i.e., final DMSO=5%). A series of 1:4 dilutions are performed to achieve a concentration range of 0.005 nM-1.563 μM for each test compound. 100 μl per well of each dilution is added to the VCAM-coated plates, followed by 10 μl of Ramos cell-derived VLA-4. These plates are sequentially mixed on a platform shaker for 1 min, incubated for 2 hour at 37° C., and then washed four times with 200 μl/well VCAM Assay Buffer. 100 μl of mouse anti-human integrin b1 antibody is added to each well (0.6 μg/mL in VCAM Assay Buffer+1 mg/mL BSA) and allowed to incubate for 1 hour at 37° C. At the conclusion of this incubation period, all plates are washed four times with VCAM Assay Buffer (200 μl/well). A corresponding second antibody, HRP-conjugated goat anti-mouse IgG (100 μl per well @ 1:800 dilution in VCAM Assay Buffer+1 mg/mL BSA), is then added to each well, followed by a 1 hour incubation at room temperature and concluded by three washes (200 μl/well) with VCAM Assay Buffer. Color development is initiated by addition of 100 μl K-Blue per well (15 mim incubation, room temp) and terminated by addition of 100 μl Red Stop Buffer per well. All plates are then read in a UV/Vis spectrophotometer at […]. Results are calculated as % inhibition of total binding (i.e., VLA-4+VCAM-1 in the absence of test compound).

Ramos (VLA-4)/VCAM-1 = molecular target: T2, Ramos (VLA-4)/VCAM-1 (Homo sapiens, UniProt P05556+P13612); assay: Ramos (VLA-4)/VCAM-1 Cell-Based Screening Assay (Ramos-VCAM-1 cell adhesion); details: Calcein-AM labeled Ramos cells, immobilized recombinant human VCAM-1
T2 construct: Ramos cells bearing cell-surface VLA-4; endogenous in cells; host or cells: Ramos cells (VLA-4); soluble VCAM-1 purified from CHO cell culture media
Method: Ramos (VLA-4)/VCAM-1 Cell-Based Screening Assay Protocol
Soluble recombinant human VCAM-1 (mixture of 5- and 7-Ig domain) was purified from CHO cell culture media by immunoaffinity chromatography and maintained in a solution containing 0.1 M Tris-glycine (pH 7.5), 0.1 M NaCl, 5 mM EDTA, 1 mM PMSF, […] NaN3 and 10 μg/mL leupeptin. Calcein-AM was purchased from Molecular Probes Inc.
VLA-4 (a4b1 integrin) antagonist activity, defined as the ability to compete with cell-surface VLA-4 for binding to immobilized VCAM-1, was quantitated using a Ramos-VCAM-1 cell adhesion assay. Ramos cells bearing cell-surface VLA-4, were labeled with a fluorescent dye (Calcein-AM) and allowed to bind VCAM-1 in the presence or absence of test compounds. A reduction in fluorescence intensity associated with adherent cells (% inhibition) reflected competitive inhibition of VLA-4 mediated cell adhesion by the test compound.
Initially, this entailed coating 96 well plates (Nunc Maxisorp) with recombinant human VCAM-1 (100 ng in 100 μl PBS), sealing each plate and allowing the plates to stand at 4° C. for ^~ 18 hour. The VCAM-coated plates were subsequently washed twice with 0.05% Tween-20 in PBS, and then blocked for 1 hour (room temperature) with 200 μl of Blocking Buffer (1% BSA/0.02% thimerosal) to reduce non-specific binding. Following the incubation with Blocking Buffer, plates were inverted, blotted and the remaining buffer aspirated. Each plate was then washed with 300 μl PBS, inverted and the remaining PBS aspirated.
Test compounds were dissolved in 100% DMSO and then diluted 1:25 in VCAM Cell Adhesion Assay Buffer (4 mM CaCl2, 4 mM MgCl2 in 50 mM TRIS-HCl, pH 7.5) (final DMSO=4%). A series of eight 1:4 dilutions were performed for each compound (general concentration range of 1 nM-12,500 nM). 100 μl/well of each dilution was added to the VCAM-coated plates, followed by 100 μl of Ramos cells (200,000 cells/well in 1% BSA/PBS). Plates containing test compounds and Ramos cells were allowed to incubate for 45 min at room temperature, after which 165 μl/well PBS was added. Plates were inverted to remove non-adherent cells, blotted and 300 μl/well PBS added. Plates were again inverted, blotted and the remaining buffer gently aspirated. 100 μl Lysis Buffer (0.1% SDS in 50 mM TRIS-HCl, pH 8.5) was added to each well and agitated for 2 min on a rotary shaking platform. The plates were then read for fluorescence intensity on a Cytofluor 2300 (Millipore) fluorecence measurement system (excitation=485 nm, emission=530 nm).

T2 sequence (P13612 34-1032): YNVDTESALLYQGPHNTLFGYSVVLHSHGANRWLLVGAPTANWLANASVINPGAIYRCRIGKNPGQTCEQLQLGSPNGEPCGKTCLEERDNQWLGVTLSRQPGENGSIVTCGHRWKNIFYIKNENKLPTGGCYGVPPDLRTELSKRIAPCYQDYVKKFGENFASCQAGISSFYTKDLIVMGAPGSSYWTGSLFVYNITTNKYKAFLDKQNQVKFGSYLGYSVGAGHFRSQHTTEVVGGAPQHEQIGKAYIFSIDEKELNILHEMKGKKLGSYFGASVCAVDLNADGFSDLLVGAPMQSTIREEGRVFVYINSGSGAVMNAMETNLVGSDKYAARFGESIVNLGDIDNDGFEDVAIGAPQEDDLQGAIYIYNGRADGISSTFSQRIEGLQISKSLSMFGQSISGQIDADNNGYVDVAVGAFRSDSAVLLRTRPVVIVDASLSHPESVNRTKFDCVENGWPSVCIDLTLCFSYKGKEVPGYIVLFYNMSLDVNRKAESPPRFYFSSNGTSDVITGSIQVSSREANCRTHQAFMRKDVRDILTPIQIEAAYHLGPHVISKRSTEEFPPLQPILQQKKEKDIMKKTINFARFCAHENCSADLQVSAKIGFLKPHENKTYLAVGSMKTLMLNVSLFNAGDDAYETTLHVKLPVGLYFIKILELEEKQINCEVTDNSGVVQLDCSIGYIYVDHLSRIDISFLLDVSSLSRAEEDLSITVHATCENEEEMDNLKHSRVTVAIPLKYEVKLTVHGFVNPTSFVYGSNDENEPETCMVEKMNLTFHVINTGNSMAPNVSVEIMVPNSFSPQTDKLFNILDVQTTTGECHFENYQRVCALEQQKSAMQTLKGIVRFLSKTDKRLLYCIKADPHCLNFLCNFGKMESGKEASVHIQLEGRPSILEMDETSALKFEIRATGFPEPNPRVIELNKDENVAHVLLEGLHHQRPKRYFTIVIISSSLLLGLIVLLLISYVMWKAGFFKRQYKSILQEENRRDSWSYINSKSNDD
T2 sequence (P05556 21-798): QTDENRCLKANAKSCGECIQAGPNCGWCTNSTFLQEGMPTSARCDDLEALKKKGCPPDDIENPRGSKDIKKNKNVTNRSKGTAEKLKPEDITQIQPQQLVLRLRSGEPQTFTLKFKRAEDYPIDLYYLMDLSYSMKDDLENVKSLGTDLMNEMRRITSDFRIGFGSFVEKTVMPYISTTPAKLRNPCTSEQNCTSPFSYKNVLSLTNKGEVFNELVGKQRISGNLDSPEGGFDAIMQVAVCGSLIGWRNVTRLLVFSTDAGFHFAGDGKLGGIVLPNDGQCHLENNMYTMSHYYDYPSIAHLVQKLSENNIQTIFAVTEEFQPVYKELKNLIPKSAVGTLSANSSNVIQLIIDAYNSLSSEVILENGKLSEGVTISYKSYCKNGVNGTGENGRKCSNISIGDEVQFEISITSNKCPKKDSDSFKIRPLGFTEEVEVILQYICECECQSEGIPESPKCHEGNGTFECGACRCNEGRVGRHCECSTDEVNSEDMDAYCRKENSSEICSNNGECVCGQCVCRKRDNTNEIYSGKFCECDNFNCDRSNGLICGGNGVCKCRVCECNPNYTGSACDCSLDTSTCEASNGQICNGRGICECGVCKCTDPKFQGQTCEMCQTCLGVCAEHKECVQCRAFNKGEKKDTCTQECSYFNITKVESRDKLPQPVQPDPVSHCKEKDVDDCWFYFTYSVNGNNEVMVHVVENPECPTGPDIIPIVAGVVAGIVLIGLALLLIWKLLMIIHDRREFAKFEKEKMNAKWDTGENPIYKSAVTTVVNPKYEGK
T1 sequence (P13612 34-1032): as the sequence (P13612 34-1032) above
T1 sequence (P05556 21-798): as the sequence (P05556 21-798) above

Structure (SMILES)	IC50 (VLA-4/VCAM-1) [nM]	IC50 (Ramos (VLA-4)/VCAM-1) [nM]
CC(=O)N1CC[C@H](c2ccc(O)cc2)[C@H]1C(=O)N[C@H]1CSSC[C@@H](C(=O)O)NC(=O)C2(CCCC2)CCNC1=O [Example 12, (8R,13R)-13-[[[1-acetyl-3-(R)-(4-hydroxyphenyl)-2-(S)-pyrrolidinyl]carbonyl]amino]-6,14-dioxo-10,11-dithia-7,15-diazaspiro[4. 12]heptadecane-8-carboxylic Acid]	0.185	0.21
O=C(O)[C@@H]1CSSC[C@H](NC(=O)[C@H]2NCC[C@@H]2c2ccc(O)cc2)C(=O)NCCC2(CCCC2)C(=O)N1 [Example 26, (8R,13R)-13-[[[3(R)-(4-hydroxyphenyl)-2(S)-pyrrolidinyl]carbonyl]-amino]-6,14-dioxo-10,11-dithia-7,15-diazaspiro[4.12]heptadecane-8-carboxylic Acid]	0.19	–
CC(=O)N1CC[C@@H](c2ccc(O)cc2)[C@@H]1C(=O)N[C@H]1CSSC[C@@H](C(=O)O)NC(=O)C2(CCCC2)CCNC1=O [reference compound]	1.65	24
CS(=O)(=O)N1CC[C@H](c2ccc(O)cc2)[C@H]1C(=O)N[C@H]1CSSC[C@@H](C(=O)O)NC(=O)C2(CCCC2)CCNC1=O [Example 22, (8R,13R)-13-[[[1-methylsulfonyl-3-(R)-(4-hydroxyphenyl)-2-(S)pyrrolidinyl]carbonyl]amino]-6,14-dioxo-10,11-dithia-7,15-diazaspiro[4. 12]-heptadecane-8-carboxylic Acid]	0.17	–

These reach a lower IC50 (VLA-4/VCAM-1). Values come first.

IC50 (VLA-4/VCAM-1) [nM]	IC50 (Ramos (VLA-4)/VCAM-1) [nM]	Structure (SMILES)
0.14	0.18	CC(C)(C)C(=O)N1CC[C@H](c2ccc(O)cc2)[C@H]1C(=O)N[C@H]1CSSC[C@@H](C(=O)O)NC(=O)C2(CCCC2)CCNC1=O [Example 24, (8R,13R)-13-[[[1-(2,2-dimethyl-1-oxopropyl)-3(R)-(4-hydroxyphenyl)-2(S)-pyrrolidinyl]carbonyl]amino]-6,14-dioxo-10,11-dithia-7,15-diazaspiro[4. 12]heptadecane-8-carboxylic Acid]
0.12	0.28	CC(=O)N1CC[C@H](c2ccc(O)cc2)[C@H]1C(=O)N[C@H]1CSSC[C@@H](C(=O)O)NC(=O)C2(CCCCC2)CCNC1=O [Example 19, (9R,14R)-14-[[[1-acetyl-3-(R)-(4-hydroxyphenyl)-2-(S)-pyrrolidinyl]-arbonyl]amino]-7,15-dioxo-11,12-dithia-8,16-diazaspiro[5. 12]Octadecane-9-carboxylic Acid]
